Assay results taken from patent US11591323B2, “Muscarinic agonists as non-steroidal and non-opioid analgesics and methods of use thereof” (Barry University, priority 2019, dated 2023).
Where two headings read alike, the source gives them in different places.

Tests used:
Parameters in all cases: host or cells: CHO cells, stably transfected
M1 muscarinic receptor [1] = target: T1, M1 muscarinic receptor (Homo sapiens, UniProt P11229); assay: accumulation of inositol phosphates IPX, M1 CHO cells (M1Gq); format: cell-based; details: for Kd: operational model, read-out: pKA (converted); for EC50: read-out: pEC50 (converted)
T1 sequence (P11229 1-460): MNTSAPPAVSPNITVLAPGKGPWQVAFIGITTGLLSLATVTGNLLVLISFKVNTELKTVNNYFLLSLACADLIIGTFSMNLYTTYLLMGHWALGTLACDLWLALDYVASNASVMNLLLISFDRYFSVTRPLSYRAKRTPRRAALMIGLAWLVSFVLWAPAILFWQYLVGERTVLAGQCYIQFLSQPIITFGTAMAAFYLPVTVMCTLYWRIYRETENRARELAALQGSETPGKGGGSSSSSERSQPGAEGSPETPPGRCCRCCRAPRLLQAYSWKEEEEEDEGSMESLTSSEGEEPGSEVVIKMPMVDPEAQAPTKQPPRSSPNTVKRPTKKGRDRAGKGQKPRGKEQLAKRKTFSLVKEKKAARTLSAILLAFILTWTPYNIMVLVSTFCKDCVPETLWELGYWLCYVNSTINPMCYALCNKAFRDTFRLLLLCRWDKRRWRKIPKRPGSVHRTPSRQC

M5 muscarinic receptor [2] = target: T2, M5 muscarinic receptor (Homo sapiens, UniProt P08912); assay: accumulation of IPX, M5 CHO cells (M5Gq); format: cell-based; details: for EC50: read-out: pEC50 (converted)
T2 sequence (P08912 1-532): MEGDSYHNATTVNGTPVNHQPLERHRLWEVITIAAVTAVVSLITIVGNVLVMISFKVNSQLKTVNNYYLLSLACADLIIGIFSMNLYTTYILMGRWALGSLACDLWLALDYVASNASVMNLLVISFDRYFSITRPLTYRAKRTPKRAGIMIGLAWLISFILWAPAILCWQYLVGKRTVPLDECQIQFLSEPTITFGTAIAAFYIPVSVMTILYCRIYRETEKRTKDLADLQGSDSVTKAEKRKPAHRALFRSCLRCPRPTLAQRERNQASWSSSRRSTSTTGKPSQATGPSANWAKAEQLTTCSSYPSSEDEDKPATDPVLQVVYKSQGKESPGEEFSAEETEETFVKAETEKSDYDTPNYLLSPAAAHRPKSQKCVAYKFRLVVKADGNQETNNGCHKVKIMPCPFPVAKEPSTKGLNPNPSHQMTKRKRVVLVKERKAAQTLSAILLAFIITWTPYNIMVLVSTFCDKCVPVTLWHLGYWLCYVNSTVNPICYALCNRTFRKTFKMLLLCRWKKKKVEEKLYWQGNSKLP

M2 muscarinic receptor [3] = target: T3, M2 muscarinic receptor (Homo sapiens, UniProt P08172); assay: inhibition of forskolin-stimulated cAMP, M2 CHO cells (M2Gi); format: cell-based; details: for Emax: CHO; for Kd: operational model, read-out: pKA (converted); for EC50: read-out: pEC50 (converted)
T3 sequence (P08172 1-466): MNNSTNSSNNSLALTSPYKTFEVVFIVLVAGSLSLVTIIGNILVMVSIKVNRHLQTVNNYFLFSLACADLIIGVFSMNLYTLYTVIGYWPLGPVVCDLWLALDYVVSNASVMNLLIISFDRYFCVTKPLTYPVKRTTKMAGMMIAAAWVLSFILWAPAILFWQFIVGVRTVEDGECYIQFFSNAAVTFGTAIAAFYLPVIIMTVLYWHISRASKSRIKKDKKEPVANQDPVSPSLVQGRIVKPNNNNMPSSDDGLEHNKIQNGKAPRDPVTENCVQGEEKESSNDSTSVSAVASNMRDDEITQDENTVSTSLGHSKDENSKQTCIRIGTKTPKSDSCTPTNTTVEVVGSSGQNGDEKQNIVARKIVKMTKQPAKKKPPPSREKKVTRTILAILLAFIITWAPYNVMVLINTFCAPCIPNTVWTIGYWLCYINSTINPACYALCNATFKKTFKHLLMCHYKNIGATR

M2 muscarinic receptor [4] = target: T3, M2 muscarinic receptor; assay: [3H]NMS competition binding, M2 CHO membranes
M5 muscarinic receptor [5] = target: T2, M5 muscarinic receptor; assay: [3H]NMS competition binding, M5 CHO membranes; details: competition with 1 nM [3H]NMS; read-out: Inhibition constants (Ki) as negative logarithms, M5 (converted)
M1 muscarinic receptor [6] = target: T1, M1 muscarinic receptor; assay: [3H]NMS competition binding, M1 CHO membranes; details: competition with 1 nM [3H]NMS; read-out: Inhibition constants (Ki) as negative logarithms, M1 (converted)
M3 muscarinic receptor [7] = target: T4, M3 muscarinic receptor (Homo sapiens, UniProt P20309); assay: accumulation of IPX, M3 CHO cells (M3Gq); format: cell-based; details: for Kd: read-out: pKA (converted); for EC50: read-out: pEC50 (converted)
M3 muscarinic receptor [8] = target: T4, M3 muscarinic receptor; assay: [3H]NMS competition binding, M3 CHO membranes; details: competition with 1 nM [3H]NMS; read-out: Inhibition constants (Ki) as negative logarithms, M3 (converted)
[9] = M1 (↑IPX), preferential response, Table 7
[10] = M1 (↑IPX), preferential response, Table 7, operational efficacy
[11] = M1 (↑IPX), preferential response, relative to carbachol, Tables 2, 3, 7
[12] = M1 (↑IPX), preferential response, to carbachol, Tables 2, 3, 7
[13] = M5 (↑IPX), preferential response, Table 7
[14] = M5 (↑IPX), preferential response, relative to carbachol, Tables 2, 3, 7
[15] = M2 (↓cAMP), preferential response, Table 7, read-out: E′MAX
[16] = M2 (↓cAMP), preferential response, Table 7, operational efficacy
[17] = M2 (↓cAMP), preferential response, Table 7
[18] = competition with 1 nM [3H]NMS, read-out: Inhibition constants (Ki) as negative logarithms, M2 (converted)
[19] = M3 (↑IPX), preferential response, Table 7
[20] = M3 (↑IPX), preferential response, Table 7, operational efficacy
[21] = M3 (↑IPX), preferential response, Table 7, operational model
[22] = M3 (↑IPX), preferential response, relative to carbachol, Tables 2, 3, 7
[23] = M3 (↑IPX), preferential response, to carbachol, Tables 2, 3, 7
[24] = M2 (↓cAMP), preferential response, relative to carbachol, Tables 2, 3, 7
[25] = M2 (↓cAMP), preferential response, to carbachol, Tables 2, 3, 7

T4 sequence (P20309 whole entry): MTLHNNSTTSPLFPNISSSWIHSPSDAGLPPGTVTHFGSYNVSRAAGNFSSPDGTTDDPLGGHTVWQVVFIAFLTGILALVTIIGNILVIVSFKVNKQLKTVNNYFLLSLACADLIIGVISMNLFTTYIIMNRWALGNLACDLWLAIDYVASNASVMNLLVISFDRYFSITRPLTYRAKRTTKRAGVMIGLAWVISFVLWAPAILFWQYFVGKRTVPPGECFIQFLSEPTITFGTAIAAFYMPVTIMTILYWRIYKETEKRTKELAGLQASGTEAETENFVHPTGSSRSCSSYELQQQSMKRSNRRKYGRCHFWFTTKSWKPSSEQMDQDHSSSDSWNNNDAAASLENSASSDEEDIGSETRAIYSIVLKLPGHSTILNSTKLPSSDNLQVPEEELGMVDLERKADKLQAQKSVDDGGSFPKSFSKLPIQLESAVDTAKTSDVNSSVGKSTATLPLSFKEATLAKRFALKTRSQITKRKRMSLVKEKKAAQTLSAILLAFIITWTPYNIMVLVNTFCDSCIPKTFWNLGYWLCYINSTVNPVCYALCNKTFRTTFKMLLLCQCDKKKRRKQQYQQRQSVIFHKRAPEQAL

C1=CCN(Cc2cccs2)CC1.Cl [Compound 6A, 1-[(thiophen-2-yl)methyl]-1,2,3,6-tetrahydropyridin-1-ium chloride]
E′MAX (M1 muscarinic receptor [1]; [9]): 2.0 ± 0.2 fold over basal
τ (M1 muscarinic receptor [1]; [10]): 0.03 ± 0.01
Kd (M1 muscarinic receptor [1]; [9]): 7.94 µM
EC50 (M1 muscarinic receptor [1]; [9]): 7.94 µM
RAi (M1 muscarinic receptor [1]; [11]): 0.0010 ± 0.0001
Δlog(τ/KA) (M1 muscarinic receptor [1]; [12]): 2.98 ± 0.26
E′MAX (M1 muscarinic receptor [1]; M1Gq (↑IPX), Table 8): 2.0 ± 0.2 fold increase
pEC50 (M1 muscarinic receptor [1]; M1Gq (↑IPX), Table 8): 5.1 ± 0.1
pKA (M1 muscarinic receptor [1]; M1Gq (↑IPX), Table 8): 5.1 ± 0.2
τ (M1 muscarinic receptor [1]; M1Gq (↑IPX), Table 8): 0.03 ± 0.01
RAi (M1 muscarinic receptor [1]; M1Gq (↑IPX), Table 8, relative to carbachol): 0.0011 ± 0.0007
Δlog(τ/KA) (M1 muscarinic receptor [1]; M1Gq (↑IPX), Table 8, to carbachol): 2.96 ± 0.86
E′MAX (M5 muscarinic receptor [2]; [13]): 1.19 ± 0.04 fold over basal
EC50 (M5 muscarinic receptor [2]; [13]): 1580 nM
RAi (M5 muscarinic receptor [2]; [14]): 0.0025 ± 0.0008
E′MAX (M5 muscarinic receptor [2]; M5Gq (↑IPX), Table 8): 1.16 ± 0.04 fold over basal
RAi (M5 muscarinic receptor [2]; M5Gq (↑IPX), Table 8, relative to carbachol): 0.0023 ± 0.0007
EC50 (M5 muscarinic receptor [2]; M5Gq (↑IPX), Table 8): 1580 nM
Emax (M2 muscarinic receptor [3]; [15]): 50 ± 2%
τ (M2 muscarinic receptor [3]; [16]): 1.32 ± 0.08
Kd (M2 muscarinic receptor [3]; [17]): 1.58 µM
EC50 (M2 muscarinic receptor [3]; [17]): 724 nM
E′MAX (M2 muscarinic receptor [3]; M2Gi (↓cAMP), Table 8): 50 ± 2 % inhibition
pEC50 (M2 muscarinic receptor [3]; M2Gi (↓cAMP), Table 8): 6.14 ± 0.05
pKA (M2 muscarinic receptor [3]; M2Gi (↓cAMP), Table 8): 5.8 ± 0.1
τ (M2 muscarinic receptor [3]; M2Gi (↓cAMP), Table 8): 1.3 ± 0.1
RAi (M2 muscarinic receptor [3]; M2Gi (↓cAMP), Table 8, relative to carbachol): 0.067 ± 0.007
Δlog(τ/KA) (M2 muscarinic receptor [3]; M2Gi (↓cAMP), Table 8, to carbachol): 1.22 ± 0.08
Ki (M2 muscarinic receptor [4]; [18]): 42.7 µM
Ki (M5 muscarinic receptor [5]): 50.1 µM
Ki (M1 muscarinic receptor [6]): 44.7 µM
E′MAX (M3 muscarinic receptor [7]; [19]): 2.5 ± 0.2 fold over basal
τ (M3 muscarinic receptor [7]; [20]): 0.06 ± 0.01
Kd (M3 muscarinic receptor [7]; [21]): 5.01 µM
EC50 (M3 muscarinic receptor [7]; [19]): 5.01 µM
RAi (M3 muscarinic receptor [7]; [22]): 0.0058 ± 0.0005
Δlog(τ/KA) (M3 muscarinic receptor [7]; [23]): 2.23 ± 0.23
E′MAX (M3 muscarinic receptor [7]; M3Gq (↑IPX), Table 8): 2.4 ± 0.2 fold over basal
τ (M3 muscarinic receptor [7]; M3Gq (↑IPX), Table 8): 0.05 ± 0.01
RAi (M3 muscarinic receptor [7]; M3Gq (↑IPX), Table 8, relative to carbachol): 0.0056 ± 0.0008
Δlog(τ/KA) (M3 muscarinic receptor [7]; M3Gq (↑IPX), Table 8, to carbachol): 2.26 ± 0.48
EC50 (M3 muscarinic receptor [7]; M3Gq (↑IPX), Table 8): 5.01 µM
Kd (M3 muscarinic receptor [7]; M3Gq (↑IPX), Table 8): 5.01 µM
Ki (M3 muscarinic receptor [8]): 37.2 µM

Cc1ccc(CN2CC=CCC2)s1.Cl [Compound 6B, 1-[(5-methylthiophen-2-yl)methyl]-1,2,3,6-tetrahydropyridin-1-ium chloride]
E′MAX (M1 muscarinic receptor [1]; [9]): 2.0 ± 0.2 fold over basal
τ (M1 muscarinic receptor [1]; [10]): 0.03 ± 0.01
Kd (M1 muscarinic receptor [1]; [9]): 15.8 µM
EC50 (M1 muscarinic receptor [1]; [9]): 15.8 µM
RAi (M1 muscarinic receptor [1]; [11]): 0.0005 ± 0.0001
Δlog(τ/KA) (M1 muscarinic receptor [1]; [12]): 3.28 ± 0.38
E′MAX (M5 muscarinic receptor [2]; [13]): 1.7 ± 0.1 fold over basal
τ (M5 muscarinic receptor [2]; M5 (↑IPX), preferential response, Table 7, operational efficacy): 0.04 ± 0.01
Kd (M5 muscarinic receptor [2]; M5 (↑IPX), preferential response, Table 7, operational model, read-out: pKA (converted)): 15.8 µM
EC50 (M5 muscarinic receptor [2]; [13]): 15100 nM
RAi (M5 muscarinic receptor [2]; [14]): 0.0009 ± 0.0005
Δlog(τ/KA) (M5 muscarinic receptor [2]; M5 (↑IPX), preferential response, to carbachol, Tables 2, 3, 7): 3.04 ± 0.66
Emax (M2 muscarinic receptor [3]; [15]): 47 ± 2%
τ (M2 muscarinic receptor [3]; [16]): 1.15 ± 0.08
Kd (M2 muscarinic receptor [3]; [17]): 20 µM
EC50 (M2 muscarinic receptor [3]; [17]): 9120 nM
RAi (M2 muscarinic receptor [3]; [24]): 0.0047 ± 0.0004
Δlog(τ/KA) (M2 muscarinic receptor [3]; [25]): 2.35 ± 0.16
Ki (M2 muscarinic receptor [4]; [18]): 10.2 µM
Ki (M2 muscarinic receptor [4]; high-affinity fraction of binding to M2, read-out: high affinity binding): ~0.03 µM
Ki (M5 muscarinic receptor [5]): 24 µM
Ki (M1 muscarinic receptor [6]): 25.1 µM
E′MAX (M3 muscarinic receptor [7]; [19]): 2.0 ± 0.2 fold over basal
τ (M3 muscarinic receptor [7]; [20]): 0.04 ± 0.01
Kd (M3 muscarinic receptor [7]; [21]): 15.8 µM
EC50 (M3 muscarinic receptor [7]; [19]): 31.6 µM
RAi (M3 muscarinic receptor [7]; [22]): 0.0006 ± 0.0001
Δlog(τ/KA) (M3 muscarinic receptor [7]; [23]): 3.24 ± 0.34
Ki (M3 muscarinic receptor [8]): 22.9 µM

C[N+]1(Cc2ccc(Br)s2)CC=CCC1.[I-] (centres unmarked) [Compound 7C, 1-[(5-bromothiophen-2-yl)methyl]-1-methyl-1,2,3,6-tetrahydropyridin-1-ium iodide]
RAi (M1 muscarinic receptor [1]): 0.0024 ± 0.0004
Δlog(τ/KA) (M1 muscarinic receptor [1]): 2.62 ± 0.18
E′MAX (M1 muscarinic receptor [1]; [9]): 1.8 ± 0.2 fold over basal
τ (M1 muscarinic receptor [1]; [10]): 0.02 ± 0.01
Kd (M1 muscarinic receptor [1]; [9]): 2.51 µM
EC50 (M1 muscarinic receptor [1]; [9]): 2.51 µM
E′MAX (M5 muscarinic receptor [2]; [13]): 1.19 ± 0.04 fold over basal
EC50 (M5 muscarinic receptor [2]; [13]): 3160 nM
RAi (M5 muscarinic receptor [2]; [14]): 0.0013 ± 0.0005
Emax (M2 muscarinic receptor [3]): 38 ± 2%
τ (M2 muscarinic receptor [3]; [16]): 0.76 ± 0.08
Kd (M2 muscarinic receptor [3]; [17]): 3.16 µM
EC50 (M2 muscarinic receptor [3]; [17]): 1620 nM
RAi (M2 muscarinic receptor [3]; [24]): 0.018 ± 0.002
Δlog(τ/KA) (M2 muscarinic receptor [3]; [25]): 1.69 ± 0.09
Ki (M2 muscarinic receptor [4]; [18]): 0.933 µM
Ki (M5 muscarinic receptor [5]): 0.977 µM
Ki (M1 muscarinic receptor [6]): 1.51 µM
RAi (M3 muscarinic receptor [7]): 0.0042 ± 0.0005
Δlog(τ/KA) (M3 muscarinic receptor [7]): 2.38 ± 0.66
E′MAX (M3 muscarinic receptor [7]; [19]): 1.6 ± 0.1 fold over basal
τ (M3 muscarinic receptor [7]; [20]): 0.02 ± 0.01
Kd (M3 muscarinic receptor [7]; [21]): 2.51 µM
EC50 (M3 muscarinic receptor [7]; [19]): 2.51 µM
Ki (M3 muscarinic receptor [8]): 2.04 µM
